The results in this text go back to BindingDB's records for doi:10.1039/d0md00137f (University of Regensburg, 2020).

The assay deals with Muscarinic acetylcholine receptor M2 (Homo sapiens) (UniProt P08172). The assay is described as follows: Displacement of [3H]NMS from human recombinant muscarinic receptor M2 expressed in […] cell membranes measured after 3 hrs by radioligand competition binding assay.

Take `NCCNC(=O)CCc1cn(CCCCC2CCN(CC(=O)N3c4ccccc4NC(=O)c4ccccc43)CC2)cn1`: the Ki (commonly the dissociation constant of the complex between target and ligand, obtained from inhibition or displacement) was found to be 0.589 nM.

`Cc1cc(/C=C/C=C/c2ccc(N(C)C)cc2)cc(C)[n+]1CCN1CCN(CCCCC2CCN(CC(=O)N3c4ccccc4NC(=O)c4ccccc43)CC2)CC1`: the inhibitory constant (Ki) worked out at 3 nM.
